Consider one compound from ChEMBL document CHEMBL1138942, “Inactivation of GABA transaminase by 4-acryloylphenol” (Bioorg Med Chem Lett, 2006).

The structures appear in SMILES notation.

Assay [1] is described as follows: (§1) Inhibition of GABA-T. Also noted: species or system Rattus norvegicus.
For assay [2], the species on record is Rattus norvegicus. Described as §1.

Broadly, the Ki is a dissociation constant, usually derived from enzyme kinetics or from competition with a known ligand. Higher therefore signals weaker binding. The compound `C=CC(=O)c1ccc(O)cc1` returned a Ki in assay [1] of 470 µM. Moreover, the Activity entry in assay [2] was “Time-dependent effect”.
